From patent US5232922A, “Imidazole compounds, processes for their preparation, pharmaceuticals based on these compounds and some intermediates” (priority 1990, dated 1993)

What was measured:
[1] = test system: skeletal muscle of the rat (chronic ischemic); test: Effect on the contractility of the skeletal muscle after chronic ischemia (tiring index); assay type: in vivo, rat (male Wistar); conditions: 6 mg/kg p.o. over 7 days, n = 4-6; for TI of ischemic treated muscle: tiring index = maximum contractility / residual force after 5 min stimulation; for change in vivo at 6 mg/kg: Rattus norvegicus, po, 168 h, smaller value = more effective, read-out: Percentage change (TI of ischemic treated muscle vs TI of normal non-treated muscle)
Excerpt: 1) Effect on the Contractility of the Skeletal Muscle After Chronic Ischemia
In recent years, a marked change has taken place in ideas about the pathophysiology of chronic peripheral arterial occlusive disease as scientific interest has to an increasing extent shifted from the macrocirculation to the microcirculation. Disturbances in the microcirculation therefore manifest themselves in an undersupply of substrates with tissue ischemia resulting therefrom which, in turn, leads to an impairment in the function of the extremity concerned. The logical consequence of this is that the target organ skeletal muscle comes more and more into the forefront. […] The clinical activity is in fact also consistently determined in humans with the aid of the painless walking distance on the moving walkway.
Male Wistar rats having a body weight of 380 to 410 g were used as experimental animals. Under hexobarbital anesthesia (®Evipan--sodium, 200 mg/kg BW (=body weight) i.p.), a unilateral ligature of the right femoral artery was applied to the animals in the groin. After sprinkling penicillin sulfonamide powder for antibiotic wound care, the small operation wound was closed and the animals were continuously observed until they were completely awake. One week later, the administration of substance began by oral administration using a stomach tube (6 mg/kg BW, carboxymethylcellulose-sodium suspension) and was continued for 7 days (single administration per day, about 7h30 to 8h30). The contractility was measured 24 h after the last administration of substance in order to exclude acute effects, to be precise by the following experimental protocol:
Superfusion with physiological saline solution (37° C.) was used to avoid drying out and cooling. The mean arterial blood pressure was recorded continuously via Statham (=blood pressure measuring device) by means of a cannulated caroted artery to control the physiological status of the animals during the experiment. All animals breathed spontaneously by means of an inserted tracheal tube.
After these preparations, the muscle was made to contract (Stimulator I, Hugo Sachs, Federal Republic of Germany) by direct electrical stimulation (2.5 mA, 2 Hz). The absolute contractility in grams at various times of stimulation was used as the measured parameter. […] If the maximum contractility at the start of stimulation is now divided by the residual force remaining after 5 minutes' tiring stimulation, a "tiring index TI" for the muscle concerned can be calculated; the ability to tire here is larger the larger TI is numerically.
4 to 6 individual experiments were carried out for each test preparation.

[2] = test system: laser-induced thrombosis in mesenterial arterioles; test: Inhibition of laser-induced thrombosis in mesenterial arterioles of the rat; assay type: in vivo, rat (female Sprague-Dawley); conditions: Rattus norvegicus, po, read-out: Percentage change vs control (inhibition of laser-induced thrombosis); for inhibition in vivo at 10 mg/kg: 10 mg/kg p.o.
[3] = Acute toxicity (LD50 range); conditions: mouse, in vivo, single administration, NMRI mice, 7 days
Protocol: The determination of the LD50 ranges was carried out in standard fashion by means of the mortality occurring in the course of 7 days in NMRI mice after single intravenous (i.v.) or intraperitoneal (i.p.) administration (NMRI=NIH Medical Research Institute).

laser-induced thrombosis [4] = test: Inhibition of laser-induced thrombosis in hyperlipidemic, spontaneously hypertensive, stroke-prone rats; assay type: in vivo, rat (hyperlipidemic hypertensive)
laser-induced thrombosis [5] = test: Inhibition of laser-induced thrombosis in atherosclerotic rabbits; assay type: in vivo, rabbit (atherosclerotic); conditions: 30 mg/kg daily for 14 days
[6] = test system: photochemically-induced thrombosis in mesenterial arterioles; test: Inhibition of photochemically-induced thrombosis in mesenterial arterioles; assay type: in vivo, rat
Protocol: In this model, rats were anesthetized as described above under 2). The investigations were carried out on mesenterial arterioles having a diameter of 11 to 50 lm. A thrombosis was induced in a modification in accordance with a method known from the literature (Herrmann, K. H. Microvasc. Res. 26, 238-249, 1983) and is based on the photochemical release of singlet oxygen, which leads locally to an endothelial lesion. The animals to be investigated received an intravenous injection of 0.3 ml of a 10% strength solution of fluorescein in isothiocyanate--Dextran 70 (FITC--Dextran 70 s, Sigma, Munich). The arterole was looked for under the microscope and centered in the observation field. The FITC--Dextran in the blood vessel was then excited using a special lamp and filter device (excitation 490 nm, emission 510 nm). For evaluation of thrombus formation, the time was taken which extended from the point of excitation to the formation of a first thrombus on the wall. 5 vessels in each animal were examined in this manner.

[7] = test system: capillary bed of the skeletal muscle of the rat; test: Laser-Doppler flow measurement of erythrocyte flux in acutely ischemic skeletal muscle; assay type: in vivo, rat (male Wistar); conditions: during occlusion
Protocol: Using laser-Doppler flow measurements (LDF), the erythrocyte flux (the number of cells flowing past under the laser beam x their velocity) can be measured in a noninvasive and continuous manner in the capillary bed of the skeletal muscle of the rat (perimed PF2 laser-Doppler flowmeter, Perimed, Sweden). […] The apparatus was set as follows: 12 kHz, gain 10, time constant 1.5 sec, 37° C. The right femoral artery of male Wistar rats having a body weight of 380-430 g was exposed and the skin and the connective tissue was dissected away over a small muscle area (anterior tibia). The probe was placed about 1 mm above this area. […] At this point, the test substances were infused intravenously in aqueous solution (0.03 and 0.6 mg/kg/min). The maximum percentage increase in the erythrocyte flux after administration of substance during the occlusion (see also Okyayuz-Baklouti, I., European J. of Pharmacology, 166: 75-86, 1989) was used as the measuring parameter for the substance activity. […] 3-7 animals were employed per preparation and dose.

acutely ischemic muscle = test: Contractility in the acutely ischemic muscle; assay type: in vivo
Protocol: The contractility in the acutely ischemic muscle was measured in a similar experimental procedure, as described under 1). The muscle, initially normally supplied with blood, was made to contract isometrically by direct electrical stimulation (1.2 Hz, 2.5 mA). The right femoral artery was then occluded for 5 min by means of a clamp. […] The vessel was then reopened and the starting contractility before the first occlusion was attained. During the second occlusion which then followed, the preparations to be tested were administered intravenously in aqueous solution via the jugular vein. 4-8 animals were employed per preparation and dose. The decrease in the contractility during occlusion with and without substance administration was compared and the percentage change was used to evaluate the substance activity. The substances according to the invention, for example the compound of Example 7, were also remarkable in this test for outstanding effects.

SMILES | TI of ischemic treated muscle [1] | change in vivo at 6 mg/kg [1] [%] | inhibition in vivo at 10 mg/kg [2] [%] | LD50 at 168 h ([3]; iv) [mg/kg] | also measured
Cl.Cn1cnc(S(=O)(=O)NCCCN2CCOCC2)c1Cl [Example 32, N-(3-Morpholinopropyl)-5-chloro-1-methyl-4-imidazolesulfonamide hydrochloride] | 2.51 | 6.4 | 21 | > 200 | –
Cl.Cn1cnc(S(=O)(=O)NCc2ccc(CN3CCOCC3)cc2)c1 [Example 14, N-[4-(morpholinomethyl)benzyl]-1-methyl-4-imidazolesulfonamide hydrochloride] | 2.57 | 13.4 | – | > 100 | inhibition in vivo at 20 mg/kg ([2]; 20 mg/kg p.o.): 13%
Cn1cnc(S(=O)(=O)O)c1Cl [Example 1, 5-Chloro-1-methyl-4-imidazolesulfonic acid] | 2.26 | 1.3 | 13 | > 200 | –
Cl.Cn1cnc(S(=O)(=O)NCCCCN2CCOCC2)c1 [Example 10, N-(4-morpholinobutyl)-1-methyl-4-imidazolesulfonamide hydrochloride] | 2.19 | -3.6 | 38 | > 100 | –
Cn1cnc(S(=O)(=O)N2CCN(c3ccc(O)cc3)CC2)c1 [Example 25] | 2.11 | 6.6 | 22 | – | LD50 at 168 h ([3]; ip): > 300 mg/kg
Cn1cnc(S(=O)(=O)NCCCCCCNS(=O)(=O)c2cn(C)cn2)c1 [Example 54, 1,6-Bis(1-methyl-4-imidazolesulfonamido)hexane] | 2.55 | 37.8 | 17 | – | LD50 at 168 h ([3]; ip): > 1200 mg/kg
Cl.Cn1cnc(S(=O)(=O)NCCCCCN2CCOCC2)c1Cl [Example 34, N-(5-Morpholino-1-pentyl)-5-chloro-1-methyl-4-imidazolesulfonamide hydrochloride] | 1.98 | 0 | 15 | > 100 | –
Cl.Cn1ccnc1S(=O)(=O)NCCCN1CCOCC1 [Example 29, N-(3-Morpholinopropyl)-1-methyl-2-imidazolesulfonamide hydrochloride] | 2.74 | 38.4 | 21 | > 100 | –
Cn1cnc(S(=O)(=O)NCCCN2CCOCC2)c1 [Example 7, N-(3-Morpholinopropyl)-1-methyl-4-imidazolesulfonamide] | 2.79 | 0.3 | 36 | > 100 | inhibition of laser-induced thrombosis (laser-induced thrombosis [4]; 10 mg/kg daily for 7 days): 18%; inhibition of laser-induced thrombosis (laser-induced thrombosis [4]; 30 mg/kg daily for 7 days): 32%; inhibition of laser-induced thrombosis (laser-induced thrombosis [5]): 36%; inhibition of photochemically-induced thrombosis ([6]; 1 mg/kg p.o.): 69%; inhibition of photochemically-induced thrombosis ([6]; 3 mg/kg i.v.): 36%; inhibition of photochemically-induced thrombosis ([6]; 3 mg/kg p.o.): 75%; inhibition of photochemically-induced thrombosis ([6]; 10 mg/kg i.v.): 56%; inhibition of photochemically-induced thrombosis ([6]; 10 mg/kg p.o.): 130%; inhibition of photochemically-induced thrombosis (in words) ([6]; rat, in vivo): inhibited in a dose-dependent and statistically significant manner; maximum percentage increase in the erythrocyte flux ([7]; 0.03 mg/kg/min i.v. infusion): +53.3%; maximum percentage increase in the erythrocyte flux ([7]; 0.6 mg/kg/min i.v. infusion): +80.6%; improvement of contractility in the acutely ischemic muscle (acutely ischemic muscle; 0.03 mg/kg/min i.v.): +17.2%; improvement of contractility in the acutely ischemic muscle (acutely ischemic muscle; 0.3 mg/kg/min i.v.): +25.2%
Cl.Cn1cncc1S(=O)(=O)NCCCN1CCOCC1 [Example 53, N-(3-Morpholino-1-propyl)-1-methyl-5-imidazolesulfonamide hydrochloride] | 3.18 | -3.3 | 18 | > 100 | –
Cl.Cn1ccnc1S(=O)(=O)NCCN1CCOCC1 [Example 30, N-(2-Morpholinoethyl)-1-methyl-2-imidazolesulfonamide hydrochloride] | 2.82 | -14.2 | 45 | > 100 | –
CC(=O)CCCCn1c(=O)c2c(ncn2C)n(C)c1=O [Pentoxyfylline, 1-(5-oxohexyl)-3,7-dimethylxanthine, reference compound] | 3.20 | 43.5 | – | – | inhibition of photochemically-induced thrombosis ([6]; 1 mg/kg p.o.): 29%; inhibition of photochemically-induced thrombosis ([6]; 3 mg/kg i.v.): 3%; inhibition of photochemically-induced thrombosis ([6]; 3 mg/kg p.o.): 18%; inhibition of photochemically-induced thrombosis ([6]; 10 mg/kg i.v.): 38%; inhibition of photochemically-induced thrombosis ([6]; 10 mg/kg p.o.): 68%; maximum percentage increase in the erythrocyte flux ([7]; 0.03 mg/kg/min i.v. infusion): 24.6%; maximum percentage increase in the erythrocyte flux ([7]; 0.6 mg/kg/min i.v. infusion): 33.1%; activity in acute ischemic muscle contractility test (in words) (acutely ischemic muscle; i.v.): only showed marginal activity
